The test system of assay [1] is Gloeophyllum trabeum (ATCC 11539). Briefly: AWPA E10-01 laboratory soil-block culture decay test of treated southern pine blocks. Format: cell-based. The note with it: for Mean percent weight loss (s.d. in parentheses), G. trabeum: unleached southern pine blocks, 12 weeks, n = 5. The protocol:
(§1) The decay resistance of southern pine treated with six experimental wood preservative formulations and exposed to two brown rot fungal species were tested using the AWPA E10-01 “Standard Method of Testing Wood Preservatives by Laboratory Soil-Block Cultures.” For this, conditioned blocks of wood are treated with suitable solutions of preservative. After a conditioning period, the wood blocks are exposed to a recognized destructive species of wood-destroying fungi. The minimum amount of preservative that protects the wood blocks against decay by a given fungus is defined as the threshold retention for that organism. Failure to protect is evidenced by loss of mass from the treated wood blocks, as indicated by a loss of weight.
(§2) Preparation of wood. Southern pine sapwood (Pinus spp.) with 6-10 rings/inch and clear of knots or other obvious defects was used. The wood was milled into test blocks of 19 mm×19 mm×19 mm. The test cubes were divided into density groups of ±5%, with 5 blocks per treatment or control. One feeder strip is needed for each block in a culture bottle. The sapwood selected for feeder strips should be capable of furnishing a satisfactory growth of the test fungus. Southern pine sapwood feeder strips were cut to approximately 3 by 28 by 34 mm with the grain of the wood parallel to either of the long dimensions and with the edge grain (radial surface) exposed to the flat face, insofar as possible.
(§3) The test blocks were pressure treated with the test preservatives, solvent alone, or two control wood preservatives, ACQ-Type D and propiconazole […] according to procedures detailed in AWPA Standard E7-01. Several of the compounds detailed in Table 1 are commercially available from Novus International, Saint Louis, Mo. (i.e., the composition abbreviated Biox AUSD is a blend of organic acid, inorganic acid and HMTBA and is sold under the trade name ACTIVATE® US WD; the compound abbreviated Biox C is HMBTA-Cu and is sold under the trade name MINTREX® Cu; the compound Biox C/Biox SE is a blend of ethoxyquin and HMTBA-Cu; the compound abbreviated Biox SE is ethoxyquin emulsion; the compound abbreviated Biox T is an antioxidant blend sold under the trade name TOXGUARD®, and the compound abbreviated Biox Z is HMTBA-Zn is sold under the trade name MINTREX® Zn).
(§4) Briefly, a full cell pressure process, simulating commercial practice as far as possible with laboratory plant equipment, using an initial vacuum, suitable temperature, and an appropriate pressure period was used. The amount of preservative absorbed by the block, i.e., the retention, was calculated for each preservative. After the test blocks were treated and weighed to obtain absorption, they were exposed to open laboratory conditions until the solvent evaporated and the moisture content was relatively stable. Then they were placed in a conditioning room for 21 days. The blocks were tested in the unleached condition.
(§5) Preparation of soil culture bottles. A soil substrate with a water holding capacity between 20% and 40% and a pH between 5.0 and 8.0 was used. The soil substrate, sifted and lightly compacted by tapping, was placed in 8-oz cylindrical culture bottles fitted with screw caps without liners. The bottles were about half-full. This amount of soil, about 118 ml for an 8-oz. culture bottle, weighed not less than 90 g when oven-dried. […] The soil was leveled and one feeder strip per block was placed in each bottle. The soil-filled bottles were autoclaved for 30 min (one time), with the caps loosened. Lids on jars with a breather hole were covered with a strip of cloth first-aid tape.
(§6) Preparation of test cultures. […] Sections (e.g., 10 mm squares) were cut from near the leading edge of mycelium in petri dish cultures and placed in contact with an edge of a feeder strip on the soil of the culture bottles.

The test system of assay [2] is Postia placenta (Madison 698). Described as above. Format: cell-based. The note with it: for Mean percent weight loss (s.d. in parentheses), P. placenta: unleached southern pine blocks, 12 weeks, n = 5. The protocol: as §1, §2, §3, §4, §5, §6
Where [3] appears, read: over all Biox C retentions, ethanolamine retention 36 kg/m^3, no observable dose response.

Structures are written as SMILES.

`CSCCC(O)C(=O)[O-].CSCCC(O)C(=O)[O-].[Cu+2]` (centres unmarked) [Biox C, copper bis(2-hydroxy-4-methylthio)butanoic acid]: in assay [1] (setting [3]), the “weight losses, G. trabeum” value was “approximately 6.5%”. Also, the “Mean percent weight loss (s.d. in parentheses), G. trabeum” value (shortened to “Mean percent weight loss … G. trabeum”) in assay [1] (retention 0.05 kg/m^3) is 5.5 (0.7) %; in assay [1] (retention 0.10 kg/m^3), 6.9 (1.8) %; in assay [1] (retention 0.50 kg/m^3), 6.1 (0.7) %; in assay [1] (retention 2.00 kg/m^3), 10.2 (5.3) %. Further, the “weight losses, P. placenta” value in assay [2] (setting [3]) is reported as approximately 5.0%. Moreover, the “Mean percent weight loss (s.d. in parentheses), P. placenta” value (“Mean percent weight loss … P. placenta” for short) in assay [2] (retention 0.05 kg/m^3) is on record as 4.5 (0.8) %; in assay [2] (retention 0.10 kg/m^3), 5.0 (1.0) %; in assay [2] (retention 0.50 kg/m^3), 6.1 (0.4) %; in assay [2] (retention 2.00 kg/m^3), 5.1 (0.7) %.

Turning to `CC(C)(C)C(O)(CCc1ccc(Cl)cc1)Cn1cncn1` (centres unmarked) [Tebuconazole, reference compound], the “Mean percent weight loss … G. trabeum” value in assay [1] (retention 0.010 kg/m^3) is 15.5 (3.7) %; in assay [1] (retention 0.025 kg/m^3), 11.8 (8.3) %; in assay [1] (retention 0.05 kg/m^3), 3.2 (1.3) %; in assay [1] (retention 0.10 kg/m^3), 1.0 (0.4) %. For the same molecule, the “Mean percent weight loss … P. placenta” value in assay [2] (retention 0.010 kg/m^3) is on record as 24.9 (21.8) %; in assay [2] (retention 0.025 kg/m^3) it was 22.4 (17.4) %; in assay [2] (retention 0.05 kg/m^3), 15.5 (13.6) %; in assay [2] (retention 0.10 kg/m^3) it was 2.8 (3.1) %.

For `CSCCC(O)C(=O)[O-].CSCCC(O)C(=O)[O-].[Zn+2]` (centres unmarked) [Biox Z], the “Mean percent weight loss … G. trabeum” value in assay [1] (retention 0.05 kg/m^3) is listed as 38.8 (3.3) %; in assay [1] (retention 0.10 kg/m^3) it was 26.4 (8.5) %; in assay [1] (retention 0.50 kg/m^3), 28.9 (15.2) %; in assay [1] (retention 2.00 kg/m^3), 27.8 (6.1) %. For the same molecule, the “Mean percent weight loss … P. placenta” value in assay [2] (retention 0.05 kg/m^3) was 50.4 (2.9) %; in assay [2] (retention 0.10 kg/m^3), 47.7 (5.1) %; in assay [2] (retention 0.50 kg/m^3) it was 42.6 (23.8) %; in assay [2] (retention 2.00 kg/m^3), 26.1 (23.2) %.

(Values after patent US20070227399A1, “COMPOSITIONS AND METHODS FOR THE PRESERVATION OF WOOD” (Novus International Inc., priority 2006, published 2007).)
